The results in this text go back to BindingDB's records for patent US20240066136 (Cullgen (Shanghai), 2024).

By Kd is commonly meant the concentration at which binding is half-saturated. Read a high Kd as weaker binding.

Some results are limits rather than exact numbers.

The target of the experiment is DNA damage-binding protein 1 (Homo sapiens, UniProt Q16531). Nature of the experiment: Surface Plasmon Resonance (SPR) Binding Assay. As to the method: Surface plasmon resonance (SPR) binding assay. All SPR studies were performed on a Biacore X100 plus or T200 instrument (GE Healthcare). Immobilization of purified His-DDB1 was carried out at 25° C. using a CM5 sensor chip. The surface was pre-equilibrated in HBS-EP running buffer (10 mM HEPES, pH7.4, 150 mM NaCl, 3 mM EDTA, 0.05% P20), then activated with EDC/NHS. His-DDB1 proteins were immobilized by amine coupling to a density of 11,000-13,000 resonance units (RUs) on flow cell FC2, whereas flow cell FC1 was used as reference. Both DDB1 immobilized and reference surfaces were deactivated with 1M ethanolamine.
Sequence of DNA damage-binding protein 1 (Q16531 whole entry): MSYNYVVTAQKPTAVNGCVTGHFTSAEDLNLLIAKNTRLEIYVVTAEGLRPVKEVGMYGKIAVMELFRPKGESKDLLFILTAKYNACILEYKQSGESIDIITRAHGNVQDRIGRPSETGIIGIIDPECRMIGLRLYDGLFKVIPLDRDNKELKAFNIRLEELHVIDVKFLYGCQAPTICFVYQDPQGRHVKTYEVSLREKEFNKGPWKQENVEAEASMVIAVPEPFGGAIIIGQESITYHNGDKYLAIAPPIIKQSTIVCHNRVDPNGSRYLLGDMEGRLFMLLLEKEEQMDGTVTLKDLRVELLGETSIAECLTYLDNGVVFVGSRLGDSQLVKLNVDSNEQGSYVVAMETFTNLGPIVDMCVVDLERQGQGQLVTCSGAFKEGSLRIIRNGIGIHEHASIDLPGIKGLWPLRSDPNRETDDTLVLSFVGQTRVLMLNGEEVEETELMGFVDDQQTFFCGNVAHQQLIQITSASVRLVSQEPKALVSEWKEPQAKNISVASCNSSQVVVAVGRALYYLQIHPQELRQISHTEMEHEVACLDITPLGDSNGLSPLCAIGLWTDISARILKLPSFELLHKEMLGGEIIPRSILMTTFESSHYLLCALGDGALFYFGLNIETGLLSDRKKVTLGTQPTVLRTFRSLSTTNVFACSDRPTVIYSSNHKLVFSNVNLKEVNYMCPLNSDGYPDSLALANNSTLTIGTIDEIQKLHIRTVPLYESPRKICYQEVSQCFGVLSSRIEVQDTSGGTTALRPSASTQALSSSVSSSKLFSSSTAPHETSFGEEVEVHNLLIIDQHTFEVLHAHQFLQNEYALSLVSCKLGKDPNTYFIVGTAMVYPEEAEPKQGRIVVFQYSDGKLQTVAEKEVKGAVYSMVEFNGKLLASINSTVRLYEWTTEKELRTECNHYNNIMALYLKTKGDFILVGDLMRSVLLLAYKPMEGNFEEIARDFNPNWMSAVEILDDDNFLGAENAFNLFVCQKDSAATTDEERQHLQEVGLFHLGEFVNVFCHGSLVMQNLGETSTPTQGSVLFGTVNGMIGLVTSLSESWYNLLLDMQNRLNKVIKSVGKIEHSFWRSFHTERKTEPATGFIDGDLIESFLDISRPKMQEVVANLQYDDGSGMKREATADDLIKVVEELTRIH
Regarding “H-KVLHKRTLG-OH [US20240066136,Peptide 5]”, the Kd is under 20 µM.

Take `NCCOCCCOCCOCCC(=O)Nc1ccccc1C(=O)Nc1ncc([N+](=O)[O-])s1` [US20240066136,Compound BL-3]: the Kd result was “in the range around 60 µM”. For `CC[C@H](C)[C@H](N)C(=O)N[C@@H](CC(C)C)C(=O)N1CCC[C@H]1C(=O)N[C@@H](CCCCN)C(=O)N[C@H](C(=O)N[C@@H](CC(C)C)C(=O)N[C@@H](Cc1cnc[nH]1)C(=O)N[C@@H](CCCCN)C(=O)N[C@@H](CCCNC(=N)N)C(=O)N[C@H](C(=O)N[C@@H](CC(C)C)C(=O)NCC(=O)N[C@@H](CC(C)C)C(=O)O)[C@@H](C)O)C(C)C` [US20240066136,Peptide 3] the value was under 20 µM; for `Cc1nc(NC(=O)c2ccccc2NC(=O)CCOCCOCCCOCCN)sc1[N+](=O)[O-]` [US20240066136,Compound BL-2], “in the range around 60 µM”.

The compound “H-ILPKVLHKRTFGL-OH [US20240066136,Peptide 4]” came in with a Kd of under 20 µM.

Consider `CC[C@H](C)[C@H](N)C(=O)N[C@@H](CC(C)C)C(=O)N1CCC[C@H]1C(=O)N[C@@H](CCCCN)C(=O)N[C@H](C(=O)N[C@@H](CC(C)C)C(=O)N[C@@H](Cc1cnc[nH]1)C(=O)N[C@@H](CCCCN)C(=O)N[C@@H](CCCNC(=N)N)C(=O)N[C@H](C(=O)N[C@@H](CC(C)C)C(=O)NCC(=O)N[C@@H](CC(C)C)C(=O)N[C@@H](CO)C(=O)O)[C@@H](C)O)C(C)C` [US20240066136,Peptide 1], for which the Kd was under 20 µM.

In turn, “H-NFTSRLNRRASFP-OH [US20240066136,Peptide 6]” returned a dissociation constant Kd of under 20 µM. On to `CCCC(=O)Nc1ccc(C(=O)Nc2ncc([N+](=O)[O-])s2)c(NC(C)=O)c1` [US20240066136,Compound B-146], for which the Kd lay in the range of 20 to 100 µM. On to “H-ILPKVWHKRELGLS-OH [US20240066136,Peptide 2]”, for which the equilibrium dissociation constant (Kd) was under 20 µM. `CC(=O)Nc1cc(C(=O)NCCCCCCN)ccc1C(=O)Nc1nc(C)c([N+](=O)[O-])s1` [US20240066136,Compound BL-4]: the Kd was over 0.1 µM. Take `CCCC(=O)Nc1ccc(C(=O)Nc2ncc([N+](=O)[O-])s2)c(OC(=O)CCC)c1` [US20240066136,Compound B-24]: the Kd entry was “in the range around 60 µM”.
